Experiments:
[1] = test system: endometriosis; assay: Example 7 12-week study in endometriosis: efficacy (VAS, B&B, EHP-30); type: in vivo, human; settings: 3.75 mg sc/4 wk
Description: Secondary endpoints included VAS score for pelvic pain, dysmenorrhea, and dyspareunia during the treatment period. […] Subjects recorded in the patient diary every day until the end of treatment. […] Designated examinations and evaluations were performed at each visit. As used in the examples, the VAS score was evaluated using a 100 mm scale. For pain intensity, the scale was anchored by “no pain” (score of 0) and “pain as bad as you can imagine” (score of 100). […] The above items were evaluated using a patient diary that was distributed by the sponsor. Subjects filled out the patient diary every day during the treatment period or until early termination. If taking prohibited analgesics, subjects recorded this fact in the patient diary along with the accompanying pain symptoms before use of analgesics. As used in the examples, pain during menstruation and pelvic pain unrelated to menstruation were evaluated using scores on the M-B&B and B&B. The M-B&B scores were recorded by subjects on the patient diary supplied by the sponsor. Subjects filled out the patient diary every day during the treatment period or until early termination. If taking prohibited analgesics, subjects recorded this fact in the patient diary along with the accompanying pain symptoms before use of analgesics. The investigator or subinvestigator assessed each patient's pain through interviews and filled out a B&B once a month. The items that were assessed are shown below. The M-B&B score included: dysmenorrhea (severe, moderate, mild, no pain, or no menstruation); pelvic pain (severe, moderate, mild, or no pain); deep dyspareunia (severe, moderate, mild, no pain, or no intercourse). The B&B score included: dysmenorrhea (severe, moderate, mild, none, or not applicable); dyspareunia (severe, moderate, mild, none, or not applicable); pelvic pain (severe, moderate, mild, or none); pelvic tenderness (severe, moderate, mild, or none); and induration (severe, moderate, mild, or none). As used in the examples, the EHP-30 score was obtained by subjects assessing and recording their own QOL using the EHP-30 questionnaire.

[2] = test system: women with endometriosis; assay: Example 7: bone mineral density and serum hormones; type: in vivo, human
Source text: Subjects were diagnosed with endometriosis within the 5 years before screening and had dysmenorrhea and pelvic pain, of which either 1 or both was at least “moderate” as determined by the investigator using the Biberoglu & Behrman (B&B) scale. […] Secondary endpoints included VAS score for pelvic pain, dysmenorrhea, and dyspareunia during the treatment period.

[3] = test system: LH, FSH, estradiol (E2), progesterone (P), CA125; assay: Example 8A: serum LH, FSH, E2, P and CA125; type: in vivo, human
Source text: Study participants were premenopausal (≥20 years) Japanese women with endometriosis (EM)-associated pain who completed a preceding 12-week study and were eligible to continue for an additional 12-week treatment were enrolled. The participants has confirmed normal regular menstrual cycles (25 to 38 days per cycle) and diagnosed to have EM and EM-related dysmenorrhea and pelvic pain of at least moderate severity as determined by the physician B&B scale. The primary endpoint was the safety including assessment of change in bone mineral density (BMD) using dual energy x-ray absorptiometry, adverse events, vital signs, weight, 12-lead electrocardiograms, and clinical laboratory tests. […] Baseline characteristics were similar between randomized patients and all patients who entered the extension study.

[4] = test system: uterine fibroids; assay: Example 10 phase 3 study versus leuprorelin in uterine fibroids: efficacy; type: in vivo, human; settings: between Week 6 and Week 12
Description: Subjects were aged 20 years or older inclusive, with uterine fibroids. […] The number of sites for this study was approximately 40.
The leuprorelin subjects were administered 1.88 mg leuprorelin, 3.75 mg leuprorelin, or placebo subcutaneously once every 4 weeks. The duration of treatment for both groups was 24 weeks, and the follow-up period was 4 weeks.
Assessment included answers to the uterine fibroid symptom and quality of life questionnaire provided in FIGS. 3A-3C; answers to the work productivity and activity impairment questionnaire: general health provided in FIGS. 66A-66B; clinical laboratory tests for hematology, chemistries, urinalysis, hormone, and biochemical bone metabolism markers.

[5] = test system: women with uterine fibroids; assay: Example 10: safety; settings: 24 wk
Source text: Secondary endpoints for safety included: Adverse events (AEs), vital signs, weight, standard 12-lead electrocardiogram (ECG), clinical laboratory tests, BMD, biochemical bone metabolism markers (serum N-telopeptide [NTELOP] and bone specific alkaline phosphatase [BAP])

[6] = Compound 1 40 mg, leuprolide acetate 3.75 mg/4 wk

Compound: CCNC(=O)[C@@H]1CCCN1C(=O)[C@H](CCCNC(=N)N)NC(=O)[C@H](CC(C)C)NC(=O)[C@@H](CC(C)C)NC(=O)[C@H](Cc1ccc(O)cc1)NC(=O)[C@H](CO)NC(=O)[C@H](Cc1c[nH]c2ccccc12)NC(=O)[C@H](Cc1c[nH]cn1)NC(=O)[C@@H]1CCC(=O)N1 [leuprolide acetate, reference compound]
- Physician B&B, dysmenorrhea ([1]; Week 12): −2.1
- Physician B&B, dyspareunia ([1]; Week 12): −0.6
- Physician B&B, non-menstrual pelvic pain ([1]; Week 12): −1.1
- change from baseline in EHP-30, Control and powerlessness ([1]; Week 12): −19.6
- change from baseline in EHP-30, Self-image ([1]; Week 12): −6.1
- change from baseline in EHP-30, emotional well-being ([1]; Week 12): −8.8
- change from baseline in EHP-30, pain ([1]; Week 12): −23.2
- change from baseline in EHP-30, social support ([1]; Week 12): −6.8
- change from baseline in mean VAS score, pelvic pain ([1]; end of 12-wk treatment period): −10.460±10.3013 mm
- Modified (patient) B&B, deep dyspareunia ([1]; end of treatment): −0.36
- Modified (patient) B&B, dysmenorrhea ([1]; end of treatment): −1.16
- Modified (patient) B&B, non-menstrual pelvic pain ([1]; end of treatment): −0.41
- change from baseline in proportion of days with usage of analgesics ([1]; end of treatment): −8.3
- week from which median serum estradiol was below LLQ [2, 6]: 4 Week
- mean estradiol serum concentration four weeks after discontinuation ([2]; FIG. 162, relative to control (placebo)): only about one-fifth of the control
- median change in serum E2 from baseline ([3]; 3.75 mg sc/4 wk, Week 24): -40.0 pg/mL
- median change in serum FSH from baseline ([3]; 3.75 mg sc/4 wk, Week 24): −2.730 mIU/mL
- median change in serum LH from baseline ([3]; 3.75 mg sc/4 wk, Week 24): −3.140 mIU/mL
- median change in serum progesterone (P) from baseline ([3]; 3.75 mg sc/4 wk, Week 24): -0.070 ng/mL
- percent change from baseline in CA125 concentration ([3]; 3.75 mg sc/4 wk, Week 24): −54.15±46.359%
- subjects with CA125 less than or equal to 35 U/mL ([3]; 3.75 mg sc/4 wk, Week 24): 88.9%
- week at which median serum E2 decreased to LLQ [3, 6]: 4 Week
- proportion of subjects with a PBAC <10 [4]: 83.1%
- Deaths [5]: 0(0.0) n(%)

From US11957684B2, “Treatment of heavy menstrual bleeding associated with uterine fibroids” (Sumitomo Pharma Switzerland GmbH, priority 2016, dated 2024)
